From ChEMBL document CHEMBL1201862, “PubChem BioAssay data set” (2004)
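These data come from cells grown in 96-well plates and exposed to compound for 48 hours at five concentrations. GI50 marks 50% less growth.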 Active and inactive are the calls of the source. Rule as the data show it: active = GI50 up to about 1.1 µM and inactive = higher.

Columns and labels:
Experiment in all cases: NCI-60 cell line screen, 48 h
[1] = tested on: A498
[2] = tested on: BT-549
[3] = tested on: CCRF-CEM
[4] = tested on: COLO 205
[5] = tested on: EKVX
[6] = tested on: HCC 2998
[7] = tested on: HCT-15
[8] = tested on: HOP-62
[9] = tested on: HOP-92
[10] = tested on: HT-29
[11] = tested on: K562
[12] = tested on: MCF7
[13] = tested on: MOLT-4
[14] = tested on: NCI-H23
[15] = tested on: PC-3
[16] = tested on: RXF 393
[17] = tested on: SF-268
[18] = tested on: SK-MEL-5
[19] = tested on: SR
[20] = tested on: M19-MEL

Compound	GI50 [1]	GI50 [2]	GI50 [3]	GI50 [4]	GI50 [5]	GI50 [6]	GI50 [7] [µM]	GI50 [8]	GI50 [9]	GI50 [10]	GI50 [11]	GI50 [12]	GI50 [13]	GI50 [14]	GI50 [15]	GI50 [16]	GI50 [17]	GI50 [18]	GI50 [19]	GI50 [20]
N#CC1(Nc2ccc(-c3ccc(NC4(C#N)CCCC4)cc3)cc2)CCCC1	> 100 µM (inactive)	> 100 µM (inactive)	0.0104 µM (active)	> 100 µM (inactive)	> 100 µM (inactive)	> 100 µM (inactive)	> 100	> 100 µM (inactive)	39.3 µM (inactive)	77.4 µM (inactive)	> 100 µM (inactive)	> 100 µM (inactive)	86.1 µM (inactive)	> 100 µM (inactive)	> 100 µM (inactive)	> 100 µM (inactive)	> 100 µM (inactive)	59 µM (inactive)	> 100 µM (inactive)	–
Cc1ccccc1NC(=O)C(=O)CC(=O)C1CCOC1=O (stereo unspecified)	> 100 µM (inactive)	–	> 100 µM (inactive)	> 100 µM (inactive)	> 100 µM (inactive)	> 100 µM (inactive)	> 100	> 100 µM (inactive)	> 100 µM (inactive)	> 10 µM (inactive)	> 100 µM (inactive)	–	–	> 100 µM (inactive)	–	> 100 µM (inactive)	> 100 µM (inactive)	> 100 µM (inactive)	–	> 100 µM (inactive)
CCOC(=O)C(=O)CC(=O)C(Br)C(Br)c1ccc(Cl)cc1 (stereo unspecified)	–	–	8.36 µM (inactive)	23.3 µM (inactive)	> 100 µM (inactive)	> 100 µM (inactive)	33.5	> 100 µM (inactive)	24.6 µM (inactive)	18.6 µM (inactive)	17.6 µM (inactive)	–	21.7 µM (inactive)	30.5 µM (inactive)	–	30.4 µM (inactive)	34.1 µM (inactive)	57.4 µM (inactive)	–	23.2 µM (inactive)
C[s+]1c2ccccc2c2ccccc21	–	–	> 100 µM (inactive)	> 100 µM (inactive)	> 100 µM (inactive)	> 100 µM (inactive)	92	> 100 µM (inactive)	–	> 100 µM (inactive)	> 100 µM (inactive)	–	> 100 µM (inactive)	> 10 µM (inactive)	–	> 100 µM (inactive)	> 100 µM (inactive)	> 100 µM (inactive)	92.5 µM (inactive)	> 100 µM (inactive)
CCOC(=O)C1(Cc2c[nH]c3ccccc23)C(O)CCCN1C(C)=O (stereo unspecified)	> 100 µM (inactive)	> 100 µM (inactive)	> 100 µM (inactive)	> 100 µM (inactive)	> 100 µM (inactive)	> 100 µM (inactive)	> 100	> 100 µM (inactive)	> 100 µM (inactive)	> 100 µM (inactive)	> 100 µM (inactive)	> 100 µM (inactive)	> 100 µM (inactive)	> 100 µM (inactive)	> 100 µM (inactive)	> 100 µM (inactive)	> 100 µM (inactive)	> 100 µM (inactive)	81.5 µM (inactive)	–
CCOC(=O)/C(=C\c1ccc(N(CCC#N)CCC#N)cc1C)NC(=O)/C=C/c1ccccc1	> 100 µM (inactive)	–	> 100 µM (inactive)	> 100 µM (inactive)	> 100 µM (inactive)	62.2 µM (inactive)	> 100	> 100 µM (inactive)	–	> 100 µM (inactive)	> 100 µM (inactive)	–	> 100 µM (inactive)	> 100 µM (inactive)	–	> 100 µM (inactive)	> 100 µM (inactive)	> 100 µM (inactive)	–	> 100 µM (inactive)
COc1cc(Oc2nc3ccc(C(F)(F)F)cc3nc2-c2ccccc2)cc(OC)c1OC	32.9 µM (inactive)	20.2 µM (inactive)	48.5 µM (inactive)	15.2 µM (inactive)	37.8 µM (inactive)	36.2 µM (inactive)	> 100	11 µM (inactive)	14.5 µM (inactive)	21.2 µM (inactive)	40.5 µM (inactive)	8.18 µM (inactive)	> 10 µM (inactive)	35.4 µM (inactive)	22.6 µM (inactive)	11 µM (inactive)	22.8 µM (inactive)	14.5 µM (inactive)	34 µM (inactive)	–
CN(C)c1ccc(/C=C/c2cc(-c3ccccc3)[n+](C)n2-c2ccccc2)cc1	0.774 µM (active)	0.0571 µM (active)	0.035 µM (active)	0.094 µM (active)	0.138 µM (active)	1.64 µM (inactive)	3.61	0.54 µM (active)	0.467 µM (active)	0.0995 µM (active)	0.0531 µM (active)	0.157 µM (active)	0.144 µM (active)	0.0349 µM (active)	0.158 µM (active)	0.281 µM (active)	0.431 µM (active)	0.0341 µM (active)	0.103 µM (active)	–
O=C(NCCCNCCCCNCCCNC(=O)c1cc(-c2ccccc2)nc2ccccc12)c1cc(-c2ccccc2)nc2ccccc12	20.7 µM (inactive)	3.13 µM (inactive)	1.88 µM (inactive)	1.91 µM (inactive)	5.18 µM (inactive)	2.01 µM (inactive)	20.1	2.36 µM (inactive)	1.48 µM (inactive)	1.91 µM (inactive)	2.14 µM (inactive)	2.1 µM (inactive)	1.9 µM (inactive)	3 µM (inactive)	2.12 µM (inactive)	3.69 µM (inactive)	1.71 µM (inactive)	2.61 µM (inactive)	1.97 µM (inactive)	–
Cc1cccc2c(N)c3cccc(C(=O)NCCN4CCOCC4)c3nc12	1.31 µM (inactive)	1.93 µM (inactive)	0.248 µM (active)	0.294 µM (active)	0.664 µM (active)	1.48 µM (inactive)	0.461	0.363 µM (active)	3.48 µM (inactive)	0.116 µM (active)	0.203 µM (active)	0.265 µM (active)	0.0278 µM (active)	0.33 µM (active)	0.436 µM (active)	0.697 µM (active)	0.0603 µM (active)	0.853 µM (active)	0.274 µM (active)	–
C=C(C)C1Cc2c(c3ccccc3n(C)c2=O)O1 (stereo unspecified)	> 100 µM (inactive)	–	> 100 µM (inactive)	> 100 µM (inactive)	> 100 µM (inactive)	–	> 100	< 0.01 µM (active)	93.3 µM (inactive)	> 100 µM (inactive)	> 100 µM (inactive)	–	> 100 µM (inactive)	> 100 µM (inactive)	–	–	> 100 µM (inactive)	> 100 µM (inactive)	–	> 100 µM (inactive)
Cc1cccc(C(C)C)c1NC(=O)C(=O)C(C(=O)c1ccccc1F)C1OC(=O)c2ccccc21 (stereo unspecified)	23.7 µM (inactive)	–	6.19 µM (inactive)	21.1 µM (inactive)	32.7 µM (inactive)	13.7 µM (inactive)	20.5	15.8 µM (inactive)	23.4 µM (inactive)	29.6 µM (inactive)	20.4 µM (inactive)	–	4.73 µM (inactive)	15 µM (inactive)	–	11.4 µM (inactive)	9.64 µM (inactive)	14.1 µM (inactive)	–	11.5 µM (inactive)
CCOC(=O)COc1ccc(OC)c2c1C(=O)CCC2	> 100 µM (inactive)	–	> 100 µM (inactive)	> 100 µM (inactive)	> 100 µM (inactive)	–	> 100	–	–	> 100 µM (inactive)	> 100 µM (inactive)	–	> 100 µM (inactive)	> 100 µM (inactive)	–	> 100 µM (inactive)	–	> 100 µM (inactive)	–	> 100 µM (inactive)
COc1ccc2c(c1)[n+]([O-])c(C(=O)C/C(=N/NC(=O)c1ccccc1O)C(=O)Nc1ccc(Cl)c(C(F)(F)F)c1)c(C)[n+]2[O-]	53.8 µM (inactive)	–	36.4 µM (inactive)	71 µM (inactive)	48.9 µM (inactive)	32.7 µM (inactive)	43.7	37.8 µM (inactive)	> 100 µM (inactive)	> 100 µM (inactive)	64.4 µM (inactive)	–	37.3 µM (inactive)	47.5 µM (inactive)	–	> 100 µM (inactive)	54.8 µM (inactive)	45.8 µM (inactive)	–	52.2 µM (inactive)
COC(=O)c1nc(NN)cc(O)c1CCCCCc1c(O)nc(NN)nc1C(=O)OC	> 100 µM (inactive)	–	> 100 µM (inactive)	> 77.8 µM (inactive)	> 100 µM (inactive)	> 100 µM (inactive)	> 100	> 100 µM (inactive)	> 100 µM (inactive)	> 100 µM (inactive)	> 100 µM (inactive)	–	> 100 µM (inactive)	> 100 µM (inactive)	–	> 100 µM (inactive)	> 100 µM (inactive)	> 100 µM (inactive)	–	> 100 µM (inactive)
Cc1ccc(CC(Cc2ccccc2C)C(=O)O)c(C(=O)O)c1 (stereo unspecified)	> 100 µM (inactive)	> 100 µM (inactive)	> 100 µM (inactive)	> 100 µM (inactive)	> 100 µM (inactive)	> 100 µM (inactive)	> 100	> 100 µM (inactive)	> 100 µM (inactive)	> 100 µM (inactive)	> 100 µM (inactive)	> 100 µM (inactive)	> 100 µM (inactive)	> 100 µM (inactive)	> 100 µM (inactive)	> 100 µM (inactive)	> 100 µM (inactive)	> 100 µM (inactive)	> 100 µM (inactive)	–
O=C(O)Cc1ccccc1 [PHENYLACETIC ACID]	> 100 µM (inactive)	> 1000 µM (inactive)	> 100 µM (inactive)	> 100 µM (inactive)	> 100 µM (inactive)	> 100 µM (inactive)	> 100	> 100 µM (inactive)	11.4 µM (inactive)	> 100 µM (inactive)	> 100 µM (inactive)	> 1000 µM (inactive)	> 100 µM (inactive)	> 100 µM (inactive)	> 100 µM (inactive)	> 100 µM (inactive)	> 100 µM (inactive)	> 100 µM (inactive)	> 1000 µM (inactive)	–
